Laboratory results: patent US20250275959A1, “COMPOUNDS AND METHODS OF THEIR USE” (LEXICON PHARMACEUTICALS, INC., priority 2024, published 2025)

Tests used:
hACSL5 [1] = biological target: T1, hACSL5 (Homo sapiens (Human), UniProt Q9ULC5); test: Human ACSL5 coupled enzyme Amplex Red assay; assay type: biochemical; details: read-out: hACSL5 IC50
Outline: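 Amplex Red coupled readout: 1 mM ATP, 25 μM oleate and 30 μM CoA were added to compound-preincubated enzyme (20 nM, residues 33-683, insect-cell expressed, His-tagged) with coupling peroxidase and acyl-CoA oxidase at pH 7.6. Signal was read at 535/590 nm after 10 minutes at 25° C., and Hill fits yielded half-maximal and maximal inhibition.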
Target sequence in this assay (Q9ULC5 33-683): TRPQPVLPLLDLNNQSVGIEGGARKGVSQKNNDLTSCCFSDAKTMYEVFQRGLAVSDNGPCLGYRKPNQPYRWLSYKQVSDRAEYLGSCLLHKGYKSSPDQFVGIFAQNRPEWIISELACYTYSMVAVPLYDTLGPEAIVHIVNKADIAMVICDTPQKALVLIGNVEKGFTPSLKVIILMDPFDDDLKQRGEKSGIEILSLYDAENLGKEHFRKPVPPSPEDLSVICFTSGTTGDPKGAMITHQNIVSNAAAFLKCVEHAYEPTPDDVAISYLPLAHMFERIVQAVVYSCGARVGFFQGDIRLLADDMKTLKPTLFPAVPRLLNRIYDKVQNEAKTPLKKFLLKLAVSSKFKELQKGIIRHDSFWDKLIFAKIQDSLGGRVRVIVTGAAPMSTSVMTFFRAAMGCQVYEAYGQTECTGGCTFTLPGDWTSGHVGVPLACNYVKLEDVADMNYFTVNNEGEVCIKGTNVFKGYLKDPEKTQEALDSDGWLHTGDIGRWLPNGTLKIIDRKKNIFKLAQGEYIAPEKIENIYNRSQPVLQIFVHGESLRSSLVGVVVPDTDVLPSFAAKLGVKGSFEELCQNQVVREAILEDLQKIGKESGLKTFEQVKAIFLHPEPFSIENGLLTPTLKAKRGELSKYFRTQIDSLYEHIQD

hACSL5 [2] = biological target: T1, hACSL5; test: Cell-based assay (CBA) with B12FA in hACSL5-transfected Expi293F / FlpIn TRex293 cells; details: hACSL5-expressing cells
Source text: To assess the cell penetration and cellular activity of the compounds, a cell-based assay (CBA) was used to detect compound potency in living cells. The assay utilized the fluorescent fatty acid analogue B12FA, a boron-dipyrromethene (BODIPY™) labelled C12 fatty acid that can be incorporated into glycerophosphocholine in the cytoplasmic oil droplets of live cells. A concentration-dependent, red-shifted fluorescence can be induced by the formation of BODIPY™ excimers in the oil droplets.
Expi293F cells transfected with full length hACSL5 plasmid were selected using 1 mg/mL G418 culture medium and clones were selected by in vitro whole cell lysate (WCL) assay. The cell passage number used in the Expi293 CBA assay could not be used beyond 10 passages due to a decrease in hACSL5 expression. Therefore, a CBA using FlpIn TRex293 cells for inducible expression of hACSL5 was also established.
FlpIn TRex293 cells transfected with hACSL5 plasmid were selected in culture medium containing 15 µg/ml Blasticidin and 150 µg/ml Hygromycin. For cell-based assays, stable transfected hACSL5 cells were seeded onto a 96-well plate at 30-50k/well and incubated overnight. For the inducible system, […] tetracycline (or doxycycline) was added to culture medium of FlpIn TRex293 hACSL5 cells on the day before the assay to induce expression of hACSL5. The next day, growth media was replaced with culture medium without FBS and glucose (DMEM glucose (-), ThermoFisher) and cells were incubated for an hour before treating cells with serial diluted compounds containing 20 µM B12FA (ThermoFisher) for another 3 hours in the above medium. Cells were then fixed in 4% formaldehyde for 10 minutes and washed twice with PBS. The plate was read using the Cytation 5 imaging system with an excitation wavelength of 485 nm and observed emissions at 630 nm and 520 nm. The percentage of inhibition was calculated as: […]
wherein A is the ratio of emission intensities at 630 nm/520 nm in the absence of inhibitor (maximum ratio); B is the ratio of the intensities at those wavelengths in the presence of […] of the test compound or non-induced cells (minimum ratio); and X is the ratio of the intensities at a given compound concentration.
Concentration-response titration points for each compound tested were filled to the Hill equation yielding concentrations of half maximal inhibition […] and maximal inhibition values.
Target sequence in this assay (Q9ULC5 whole entry, the tested form may be a part): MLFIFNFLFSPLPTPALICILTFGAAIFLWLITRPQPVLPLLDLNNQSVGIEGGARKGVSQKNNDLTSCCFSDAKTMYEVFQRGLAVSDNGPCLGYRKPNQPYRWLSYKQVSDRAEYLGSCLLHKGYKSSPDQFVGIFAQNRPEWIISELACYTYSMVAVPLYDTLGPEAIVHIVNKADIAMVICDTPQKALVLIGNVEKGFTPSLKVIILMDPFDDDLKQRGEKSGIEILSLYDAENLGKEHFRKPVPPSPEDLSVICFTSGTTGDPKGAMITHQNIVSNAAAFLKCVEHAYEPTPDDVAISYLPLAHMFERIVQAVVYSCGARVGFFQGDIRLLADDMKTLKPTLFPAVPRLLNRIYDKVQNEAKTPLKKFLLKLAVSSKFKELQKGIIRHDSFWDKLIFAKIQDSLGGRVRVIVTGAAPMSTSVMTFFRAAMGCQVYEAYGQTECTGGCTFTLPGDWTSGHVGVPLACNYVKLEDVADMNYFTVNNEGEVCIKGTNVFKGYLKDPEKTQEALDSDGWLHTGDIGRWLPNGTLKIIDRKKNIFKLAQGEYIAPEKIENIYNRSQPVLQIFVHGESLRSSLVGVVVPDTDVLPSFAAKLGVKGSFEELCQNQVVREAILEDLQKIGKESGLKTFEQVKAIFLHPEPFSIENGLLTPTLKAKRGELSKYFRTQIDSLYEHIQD

`CC[C@@H](Oc1ccc(C(=O)NS(=O)(=O)N2CCN(C)[C@H](C)C2)c(F)c1F)c1ccc(OCC2CC2)cn1` [4-((R)-1-(5-(cyclopropylmethoxy)pyridin-2-yl)propoxy)-N-(((R)-3,4-dimethylpiperazin-1-yl)sulfonyl)-2,3-difluorobenzamide] was tested. Which IC50 (hACSL5 [1]) did it give?
Its IC50 is less than 100 nM.

What about the IC50 (hACSL5 [2]) of the same compound?
The IC50 was less than 100 nM.

How did the IC50 (hACSL5 [1]) turn out when `CC[C@@H](Oc1ccc(C(=O)NS(=O)(=O)N2CCN(C)[C@@H](C)C2)c(F)c1F)c1ccc(OCC2CC2)cn1` [4-((R)-1-(5-(cyclopropylmethoxy)pyridin-2-yl)propoxy)-N-(((S)-3,4-dimethylpiperazin-1-yl)sulfonyl)-2,3-difluorobenzamide] was run?
The IC50 was less than 100 nM.

And the IC50 (hACSL5 [2])?
The IC50 was less than 100 nM.

`CC[C@@H](Oc1ccc(C(=O)NS(=O)(=O)N2CCN(C)CC2(C)C)c(F)c1F)c1ccc(Oc2ccccn2)cn1` [(R)-2,3-difluoro-4-(1-(5-(pyridin-2-yloxy)pyridin-2-yl)propoxy)-N-((2,2,4-trimethylpiperazin-1-yl)sulfonyl)benzamide] was tested. Which IC50 (hACSL5 [1]) did it give?
Its IC50 is less than 100 nM.

What about the IC50 (hACSL5 [2]) of the same compound?
Its IC50 is less than 100 nM.

With `CC[C@@H](Oc1ccc(C(=O)NS(=O)(=O)C2CCN(C)CC2)c(F)c1F)c1ccc(Oc2ccccn2)cn1` [(R)-2,3-difluoro-N-((1-methylpiperidin-4-yl)sulfonyl)-4-(1-(5-(pyridin-2-yloxy)pyridin-2-yl)propoxy)benzamide] as the compound, how does the IC50 (hACSL5 [1]) read?
The IC50 was less than 100 nM.

What about the IC50 (hACSL5 [2]) of the same compound?
The IC50 was 100 to 500 nM.

`CC[C@@H](Oc1ccc(C(=O)NS(=O)(=O)N2CCN(CC(C)(C)F)CC2)c(F)c1F)c1ccc(Oc2ccccn2)cn1` [(R)-2,3-difluoro-N-((4-(2-fluoro-2-methylpropyl)piperazin-1-yl)sulfonyl)-4-(1-(5-(pyridin-2-yloxy)pyridin-2-yl)propoxy)benzamide] was tested. Which IC50 (hACSL5 [1]) did it give?
The IC50 was less than 100 nM.

What about the IC50 (hACSL5 [2]) of the same compound?
Its IC50 is less than 100 nM.

With `CC[C@@H](Oc1ccc(C(=O)NS(=O)(=O)N2CCN(CC(C)(C)O)CC2)c(F)c1F)c1ccc(Oc2ccccn2)cn1` [(R)-2,3-difluoro-N-((4-(2-hydroxy-2-methylpropyl)piperazin-1-yl)sulfonyl)-4-(1-(5-(pyridin-2-yloxy)pyridin-2-yl)propoxy)benzamide] as the compound, how does the IC50 (hACSL5 [1]) read?
Its IC50 is less than 100 nM.

What about the IC50 (hACSL5 [2]) of the same compound?
Its IC50 is less than 100 nM.

Which results are given for `CC[C@@H](Oc1ccc(C(=O)NS(=O)(=O)N2CCC(OC3CCN(CCOC)CC3)CC2)c(F)c1F)c1ccc(Oc2ccccn2)cn1` [(R)-2,3-difluoro-N-((4-((1-(2-methoxyethyl)piperidin-4-yl)oxy)piperidin-1-yl)sulfonyl)-4-(1-(5-(pyridin-2-yloxy)pyridin-2-yl)propoxy)benzamide]?
IC50 (hACSL5 [1]): < 100 nM; IC50 (hACSL5 [2]): < 100 nM

With `CC[C@@H](Oc1ccc(C(=O)NS(=O)(=O)N2CCC(OC3CCN(C)CC3)CC2)c(F)c1F)c1cc(Oc2ccccn2)ccn1` [(R)-2,3-difluoro-N-((4-((1-methylpiperidin-4-yl)oxy)piperidin-1-yl)sulfonyl)-4-(1-(4-(pyridin-2-yloxy)pyridin-2-yl)propoxy)benzamide] as the compound, how does the IC50 (hACSL5 [1]) read?
The IC50 was less than 100 nM.

And the IC50 (hACSL5 [2])?
Its IC50 is 100 to 500 nM.

Which results are given for `CC[C@@H](Oc1ccc(C(=O)NS(=O)(=O)N2CCC(OC3CCN(C)CC3)CC2)c(F)c1F)c1ccc(Oc2ccccn2)cn1` [(R)-2,3-difluoro-N-((4-((1-methylpiperidin-4-yl)oxy)piperidin-1-yl)sulfonyl)-4-(1-(5-(pyridin-2-yloxy)pyridin-2-yl)propoxy)benzamide]?
IC50 (hACSL5 [1]): < 100 nM; IC50 (hACSL5 [2]): < 100 nM

For `CC[C@@H](Oc1ccc(C(=O)NS(=O)(=O)N2CCN(C)CC2)c(F)c1F)c1cc(Oc2ccccn2)ccn1` [(R)-2,3-difluoro-N-((4-methylpiperazin-1-yl)sulfonyl)-4-(1-(4-(pyridin-2-yloxy)pyridin-2-yl)propoxy)benzamide], which IC50 (hACSL5 [1]) is on record?
The IC50 was less than 100 nM.

What about the IC50 (hACSL5 [2]) of the same compound?
Its IC50 is 100 to 500 nM.

Which results are given for `CC[C@@H](Oc1ccc(C(=O)NS(=O)(=O)N2CCC(OC3CCN(C)CC3)CC2)c(F)c1F)c1cccc(OCC2CC2)c1` [(R)-4-(1-(3-(cyclopropylmethoxy)phenyl)propoxy)-2,3-difluoro-N-((4-((1-methylpiperidin-4-yl)oxy)piperidin-1-yl)sulfonyl)benzamide]?
IC50 (hACSL5 [1]): 100 to 500 nM; IC50 (hACSL5 [2]): 100 to 500 nM

Which results are given for `CC[C@@H](Oc1ccc(C(=O)NS(=O)(=O)c2ccc(OC3CCN(C)CC3)cc2)c(F)c1F)c1cc(OCC2CC2)ccn1` [(R)-4-(1-(4-(cyclopropylmethoxy)pyridin-2-yl)propoxy)-2,3-difluoro-N-((4-((1-methylpiperidin-4-yl)oxy)phenyl)sulfonyl)benzamide]?
IC50 (hACSL5 [1]): 100 to 500 nM; IC50 (hACSL5 [2]): 100 to 500 nM

With `CC[C@@H](Oc1ccc(C(=O)NS(=O)(=O)N2CCC(OC3CCN(C)CC3)CC2)c(F)c1F)c1cc(OCC2CC2)ccn1` [(R)-4-(1-(4-(cyclopropylmethoxy)pyridin-2-yl)propoxy)-2,3-difluoro-N-((4-((1-methylpiperidin-4-yl)oxy)piperidin-1-yl)sulfonyl)benzamide] as the compound, how does the IC50 (hACSL5 [1]) read?
Its IC50 is 100 to 500 nM.

What about the IC50 (hACSL5 [2]) of the same compound?
Its IC50 is 100 to 500 nM.

With `CC[C@@H](Oc1ccc(C(=O)NS(=O)(=O)N2CCN(C)CC2)c(F)c1F)c1cc(OCC2CC2)ccn1` [(R)-4-(1-(4-(cyclopropylmethoxy)pyridin-2-yl)propoxy)-2,3-difluoro-N-((4-methylpiperazin-1-yl)sulfonyl)benzamide] as the compound, how does the IC50 (hACSL5 [1]) read?
The IC50 was 100 to 500 nM.

What about the IC50 (hACSL5 [2]) of the same compound?
The IC50 was 100 to 500 nM.

Which IC50 (hACSL5 [1]) does the source give for `CC[C@@H](Oc1ccc(C(=O)NS(=O)(=O)c2ccc(OCCN(C)C)cc2)c(F)c1F)c1cc(OCC2CC2)ccn1` [(R)-4-(1-(4-(cyclopropylmethoxy)pyridin-2-yl)propoxy)-N-((4-(2-(dimethylamino)ethoxy)phenyl)sulfonyl)-2,3-difluorobenzamide] here?
Its IC50 is 100 to 500 nM.

And the IC50 (hACSL5 [2])?
The IC50 was 100 to 500 nM.

What does the source list for `CC[C@@H](Oc1ccc(C(=O)NS(=O)(=O)C2CCN(C)CC2)c(F)c1F)c1ccc(OCC2CC2)cn1` [(R)-4-(1-(5-(cyclopropylmethoxy)pyridin-2-yl)propoxy)-2,3-difluoro-N-((1-methylpiperidin-4-yl)sulfonyl)benzamide]?
IC50 (hACSL5 [1]): 100 to 500 nM; IC50 (hACSL5 [2]): > 500 nM

Which IC50 (hACSL5 [1]) does the source give for `CC[C@@H](Oc1ccc(C(=O)NS(=O)(=O)N2CCN(C)CC2(C)C)c(F)c1F)c1ccc(OCC2CC2)cn1` [(R)-4-(1-(5-(cyclopropylmethoxy)pyridin-2-yl)propoxy)-2,3-difluoro-N-((2,2,4-trimethylpiperazin-1-yl)sulfonyl)benzamide] here?
Its IC50 is less than 100 nM.

And the IC50 (hACSL5 [2])?
Its IC50 is less than 100 nM.

With `CC[C@@H](Oc1ccc(C(=O)NS(=O)(=O)c2cnc(OC3CCN(C)CC3)nc2)c(F)c1F)c1ccc(OCC2CC2)cn1` [(R)-4-(1-(5-(cyclopropylmethoxy)pyridin-2-yl)propoxy)-2,3-difluoro-N-((2-((1-methylpiperidin-4-yl)oxy)pyrimidin-5-yl)sulfonyl)benzamide] as the compound, how does the IC50 (hACSL5 [1]) read?
Its IC50 is less than 100 nM.

And the IC50 (hACSL5 [2])?
The IC50 was greater than 500 nM.

Which results are given for `CC[C@@H](Oc1ccc(C(=O)NS(=O)(=O)N2CCN(C)C(C)(C)C2)c(F)c1F)c1ccc(OCC2CC2)cn1` [(R)-4-(1-(5-(cyclopropylmethoxy)pyridin-2-yl)propoxy)-2,3-difluoro-N-((3,3,4-trimethylpiperazin-1-yl)sulfonyl)benzamide]?
IC50 (hACSL5 [1]): < 100 nM; IC50 (hACSL5 [2]): < 100 nM

What does the source list for `CC[C@@H](Oc1ccc(C(=O)NS(=O)(=O)c2ccc(OCCN3CCN(C)CC3)cc2)c(F)c1F)c1ccc(OCC2CC2)cn1` [(R)-4-(1-(5-(cyclopropylmethoxy)pyridin-2-yl)propoxy)-2,3-difluoro-N-((4-(2-(4-methylpiperazin-1-yl)ethoxy)phenyl)sulfonyl)benzamide]?
IC50 (hACSL5 [1]): < 100 nM; IC50 (hACSL5 [2]): 100 to 500 nM

Which IC50 (hACSL5 [1]) does the source give for `CC[C@@H](Oc1ccc(C(=O)NS(=O)(=O)c2ccc(OCCNC3COC3)cc2)c(F)c1F)c1ccc(OCC2CC2)cn1` [(R)-4-(1-(5-(cyclopropylmethoxy)pyridin-2-yl)propoxy)-2,3-difluoro-N-((4-(2-(oxetan-3-ylamino)ethoxy)phenyl)sulfonyl)benzamide] here?
Its IC50 is less than 100 nM.

And the IC50 (hACSL5 [2])?
The IC50 was 100 to 500 nM.

Which IC50 (hACSL5 [1]) does the source give for `CC[C@@H](Oc1ccc(C(=O)NS(=O)(=O)c2ccc(OCCN3CCCCC3)cc2)c(F)c1F)c1ccc(OCC2CC2)cn1` [(R)-4-(1-(5-(cyclopropylmethoxy)pyridin-2-yl)propoxy)-2,3-difluoro-N-((4-(2-(piperidin-1-yl)ethoxy)phenyl)sulfonyl)benzamide] here?
The IC50 was less than 100 nM.

And the IC50 (hACSL5 [2])?
The IC50 was less than 100 nM.

Which IC50 (hACSL5 [1]) does the source give for `CC[C@@H](Oc1ccc(C(=O)NS(=O)(=O)c2ccc(OCCN3CCCC3)cc2)c(F)c1F)c1ccc(OCC2CC2)cn1` [(R)-4-(1-(5-(cyclopropylmethoxy)pyridin-2-yl)propoxy)-2,3-difluoro-N-((4-(2-(pyrrolidin-1-yl)ethoxy)phenyl)sulfonyl)benzamide] here?
Its IC50 is less than 100 nM.

What about the IC50 (hACSL5 [2]) of the same compound?
The IC50 was 100 to 500 nM.
